Legend:
[1] = target: cGMP-specific 3',5'-cyclic phosphodiesterase (Homo sapiens, UniProt O76074); test: Inhibition of phosphodiesterase 5 from human platelets
[2] = Relative inhibition of bovine heart PDE1 and human platelet PDE5
[3] = Relative inhibition of bovine retina PDE6 and human platelet PDE 5
[4] = Relative inhibition of rat kidney PDE2 and human platelet PDE 5
[5] = Relative inhibition of rat kidney PDE4 and human platelet PDE 5
Phosphodiesterase 6 = test: Inhibition of phosphodiesterase 6; assay type: protein assay
Phosphodiesterase 1 = Phosphodiesterase 1 (Bos taurus, UniProt Q01061+P14100); test: Inhibition of phosphodiesterase 1 of bovine heart; assay type: protein assay
Phosphodiesterase 3 = Phosphodiesterase 3 (Homo sapiens, UniProt Q14432+Q13370); test: Inhibitory activity of compound against phosphodiesterase 3 was tested; assay type: protein assay
[6] = Inhibition of phosphodiesterase 4
[7] = target: cGMP-dependent 3',5'-cyclic phosphodiesterase (Rattus norvegicus) (UniProt Q01062); test: Inhibition of phosphodiesterase 2
Sequence of cGMP-dependent 3',5'-cyclic phosphodiesterase (Rattus norvegicus) (Q01062 whole entry, looked up): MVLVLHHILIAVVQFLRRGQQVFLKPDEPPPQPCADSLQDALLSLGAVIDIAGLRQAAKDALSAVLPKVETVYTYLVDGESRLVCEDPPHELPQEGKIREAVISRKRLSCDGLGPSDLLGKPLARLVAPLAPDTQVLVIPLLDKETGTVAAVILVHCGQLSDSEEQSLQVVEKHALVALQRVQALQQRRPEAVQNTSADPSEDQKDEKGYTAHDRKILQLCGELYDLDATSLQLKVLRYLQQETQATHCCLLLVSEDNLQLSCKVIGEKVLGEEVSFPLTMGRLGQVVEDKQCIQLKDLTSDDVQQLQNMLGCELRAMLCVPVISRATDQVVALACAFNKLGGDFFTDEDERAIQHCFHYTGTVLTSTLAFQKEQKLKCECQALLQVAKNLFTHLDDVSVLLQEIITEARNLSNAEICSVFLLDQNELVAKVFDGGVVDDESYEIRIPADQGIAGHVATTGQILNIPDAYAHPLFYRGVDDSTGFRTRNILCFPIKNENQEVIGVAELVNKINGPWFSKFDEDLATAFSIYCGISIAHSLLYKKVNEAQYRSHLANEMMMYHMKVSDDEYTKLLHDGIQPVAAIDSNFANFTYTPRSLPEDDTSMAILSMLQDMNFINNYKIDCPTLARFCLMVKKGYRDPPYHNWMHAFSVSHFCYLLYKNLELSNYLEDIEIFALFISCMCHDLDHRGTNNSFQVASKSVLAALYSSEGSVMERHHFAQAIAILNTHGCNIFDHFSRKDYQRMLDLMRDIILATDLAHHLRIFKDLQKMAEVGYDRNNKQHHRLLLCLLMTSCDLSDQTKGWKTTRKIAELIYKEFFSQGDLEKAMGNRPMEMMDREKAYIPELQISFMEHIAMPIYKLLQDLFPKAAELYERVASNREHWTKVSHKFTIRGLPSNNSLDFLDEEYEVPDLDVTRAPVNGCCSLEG

IC50 [1]	Selectivity ratio [2]	Selectivity ratio [3]	Selectivity ratio [4]	Selectivity ratio [5]	IC50 (Phosphodiesterase 6)	IC50 (Phosphodiesterase 1)	IC50 (Phosphodiesterase 3)	IC50 [6]	IC50 [7]	SMILES
1.3 nM	> 100000	64	> 100000	3100	–	–	–	–	–	COc1ccc(CNc2c(C(=O)NCc3ccccn3)cnc3ccc(C#N)cc23)cc1Cl
–	–	40	–	2200	–	–	–	–	–	CCc1cc(C#N)cc2c(NCc3ccc(OC)c(Cl)c3)ccnc12
0.6 nM	> 100000	110	> 100000	> 100000	–	–	–	–	–	CCOC(=O)c1cnc2c(CC)cc(C#N)cc2c1NCc1ccc(OC)c(Cl)c1
160 nM	> 310	125	> 310	> 310	20000 nM	> 50000 nM	> 50000 nM	> 50000 nM	> 50000 nM	CCOC(=O)c1cnc2cc(C(F)(F)F)ccc2c1NCc1ccc(OC)c(Cl)c1
1.4 nM	6400	29	> 100000	3500	–	–	–	–	–	COc1ccc(CNc2ccnc3ccc(C#N)cc23)cc1Cl
0.55 nM	–	82	–	4500	–	–	–	–	–	CCc1cc(C#N)cc2c(NCc3ccc(OC)c(Cl)c3)c(C(=O)NCc3ccccn3)cnc12
0.48 nM	> 100000	23	8600	> 100000	–	–	–	–	–	COc1ccc(CNc2c(CO)cnc3ccc(C#N)cc23)cc1Cl
–	–	15	> 100000	3800	–	–	–	–	–	CCOC(=O)c1cnc2ccc(C#N)cc2c1NCc1ccc(OC)c(Cl)c1
73 nM	> 680	75	> 680	247	–	–	–	–	–	CCOC(=O)c1cnc2ccc(C(F)(F)F)cc2c1NCc1ccc(OC)c(Cl)c1
0.05 nM	> 1e+06	7800	> 100000	–	–	–	–	–	–	CCc1cc(C#N)cc2c(NCc3ccc(OC)c(Cl)c3)c(CO)cnc12

From ChEMBL document CHEMBL1147639, “Quinolines as extremely potent and selective PDE5 inhibitors as potential agents for treatment of erectile dysfunction” (Bioorg Med Chem Lett, 2004)
